The text below walks through data of ChEMBL document CHEMBL5360598, “An ECD and NMR/DP4+ Computational Pipeline for Structure Revision and Elucidation of Diphenazine-Based Natural Products” (J Nat Prod, 2023).

Molecules are shown by their SMILES. The source made the active and inactive calls. No cut-off for these calls is given here.

One may read the EC50 as the midpoint of the concentration-response curve.

Experiment [1] deals with Eukaryotic translation initiation factor 4E/Eukaryotic translation initiation factor 4E-binding protein 1 (Homo sapiens, UniProt P06730+Q13541). Briefly: Inhibition of eIF4E-4E-BP1 (unknown origin) interaction by cat-ELCCA assay. It is filed as protein assay.
Chain of Eukaryotic translation initiation factor 4E/Eukaryotic translation initiation factor 4E-binding protein 1 (P06730 whole entry): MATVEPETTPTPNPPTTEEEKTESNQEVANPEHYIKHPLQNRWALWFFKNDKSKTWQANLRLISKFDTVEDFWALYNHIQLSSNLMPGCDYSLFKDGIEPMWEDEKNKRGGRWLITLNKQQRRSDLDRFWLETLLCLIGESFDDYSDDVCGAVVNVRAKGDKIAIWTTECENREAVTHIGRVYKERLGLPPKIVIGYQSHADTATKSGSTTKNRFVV
Chain of Eukaryotic translation initiation factor 4E/Eukaryotic translation initiation factor 4E-binding protein 1 (Q13541 whole entry): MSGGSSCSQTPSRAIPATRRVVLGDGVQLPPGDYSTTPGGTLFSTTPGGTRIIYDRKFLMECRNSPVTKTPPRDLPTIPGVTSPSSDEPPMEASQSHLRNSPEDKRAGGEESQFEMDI
The target of experiment [2] is Eukaryotic translation initiation factor 4E (Homo sapiens) (UniProt P06730). Description: Binding affinity to eIF4E in HEK293 cell lysate assessed as thermal stability at 25 uM at 42 to 53 degreeC by CETSA. It is filed as subcellular.
Chain of Eukaryotic translation initiation factor 4E (Homo sapiens) (P06730 whole entry): as the sequence (P06730 whole entry) above
A further experiment concerns MIA PaCa-2. Briefly: Antiproliferative activity against human MIA PaCa-2 cells by Cell Titer Glo assay. It is filed as functional, cell-based.

Regarding `O=C(O)c1ccc(O)c2nc3c4c(ccc3nc12)[C@@H]1Cc2nc3cccc(O)c3nc2[C@H](O4)[C@H]1O`, in experiment [1] (read-out: EC50), the EC50 was found to be 310 µM. Regarding `O=C(O)c1cc2c(c3nc4c(O)cccc4nc13)[C@@H]1Cc3nc4cccc(O)c4nc3[C@@](O)(C1)O2`, the EC50 result in experiment [1] is recorded as “Not Active”. With `O=C(O)c1ccc(=O)c2nc3c4c(ccc3[nH]c1-2)[C@@H]1Cc2nc3cccc(O)c3nc2[C@H](O4)[C@H]1O`, the EC50 in experiment [1] (read-out: EC50) worked out at 68 µM. For `O=C(O)c1cc2c(c3nc4c(O)cccc4nc13)[C@@H]1Cc3nc4cccc(O)c4nc3[C@@H](O)[C@@H]1O2` [IZUMIPHENAZINE A], the EC50 in experiment [1] (read-out: EC50) amounted to 240 µM.

As for `O=C(O)c1cc2c(c3nc4c(O)cccc4nc13)O[C@@H]1[C@H](O)c3nc4cccc(O)c4nc3C[C@H]21`, the EC50 in experiment [1] (read-out: EC50) is 7.8 µM. Further, the result in experiment [2] was Active. Also, the result with MIA PaCa-2 was inactive. For the molecule `Oc1cccc2nc3c(O)cccc3nc12`, the EC50 result in experiment [1] was “Not Active”.

On to `O=C(O)c1cc2c(c3nc4c(O)cccc4nc13)[C@@H]1Cc3nc4cccc(O)c4nc3[C@H](O2)[C@H]1O`, for which the EC50 in experiment [1] (read-out: EC50) came to 260 µM.
